Measurements as given in PMC6358866 (International Journal of Molecular Sciences, 2019).

Assays:
[1] = test system: Escherichia coli ATCC 25922 biofilm; test: Activity against biofilms on 96-well plates after withdrawal of the antimicrobial (additional 24 h in MHB II); assay type: cell-based; conditions: after withdrawal and additional 24 h in MHB II
Procedure: (§1) Bacterial strains were obtained from the Polish Collection of Microorganisms (Polish Academy of Science, Wroclaw, Poland). Three Gram-positive and two Gram-negative strains linked with CL-related infections were chosen for the study (Staphylococus aureus ATCC 6538, Staphylococcus epidermidis ATCC 14990, Pseudomonas aeruginosa ATCC 9027, Escherichia coli ATCC 25922, and Enterococcus faecalis ATCC 29212). The bacteria were cultured in a Mueller Hinton Broth II (MHB, Biocorp, Warsaw, Poland) overnight, under aerobic conditions at 37 °C. […] Bacterial suspensions were added to 96-well plates (Kartell, Noviglio, Italy) at initial inoculums of ca. 5 × 10^8 CFU/mL and incubated under aerobic conditions with shaking (120 rpm) at 37 °C for 24 h. […] After exposure, the wells were washed three times with PBS and a solution of resazurin (Sigma Aldrich, St. […] This cell viability reagent is metabolized by bacterial dehydrogenases upon contact with living cells. As a result, the blue dye is reduced to a pink resorufin. After 1.5 h of incubation, the absorbance was measured at 570 and 600 nm using a microplate reader (Thermo Fisher Scientific, Waltham, MA, USA). […] The procedure was conducted as described in Section 4.3, with the difference that after exposure to antimicrobials, the wells were washed three times with PBS and pure MHB II was added. The samples were incubated for another 24 h (aerobic conditions, 120 rpm shaking, 37 °C). […] The absorbance was measured at the same wave lengths and metabolic activity was calculated according to the formula given in Section 4.3. The presented results are means of nine results obtained on three different days.

[2] = test system: Pseudomonas aeruginosa ATCC 9027 biofilm; test: as above; assay type: cell-based; conditions: lowest concentration giving permanent reduction of metabolic activity by at least 50 ± 5%; after withdrawal and additional 24 h in MHB II
Procedure: as §1

[3] = test system: Staphylococcus epidermidis ATCC 14990 biofilm; test: as above; assay type: cell-based; conditions: after withdrawal and additional 24 h in MHB II
Procedure: as §1

[4] = test system: Enterococcus faecalis ATCC 29212 biofilm; test: as above; assay type: cell-based; conditions: after withdrawal and additional 24 h in MHB II; for concentration permanently eradicating the biofilm: EF biofilm on polystyrene
Procedure: as §1

[5] = test system: Enterococcus faecalis ATCC 29212 biofilm on CLs; test: Activity of lipopeptide and CL liquids against biofilms formed on contact lenses; assay type: cell-based; conditions: EF biofilm on CLs, lipopeptide in PBS, 24 h, resazurin
Procedure: (§2) Bacterial strains were obtained from the Polish Collection of Microorganisms (Polish Academy of Science, Wroclaw, Poland). Three Gram-positive and two Gram-negative strains linked with CL-related infections were chosen for the study (Staphylococus aureus ATCC 6538, Staphylococcus epidermidis ATCC 14990, Pseudomonas aeruginosa ATCC 9027, Escherichia coli ATCC 25922, and Enterococcus faecalis ATCC 29212). The bacteria were cultured in a Mueller Hinton Broth II (MHB, Biocorp, Warsaw, Poland) overnight, under aerobic conditions at 37 °C. After incubation, the liquid cultures were centrifuged (2500 rpm for 10 min) and washed with phosphoric buffer (PBS, AppliChem, Darmstadt, Germany) three times and resuspended in fresh MHB II for inoculums appropriate for the performed assays.
(§3) Bacterial biofilms were cultured on commercially available CLs (1-Day Acuvue Moist, containing Etafilcon A, obtained from Johnson and Johnson Vision Care, Jacksonsville, FL, USA). The CLs were placed in polystyrene 24-well plates (Orange Scientific, Braine-l’Alleud, Belgium) in bacterial suspensions in MHB II at initial inoculums of ca. 5 × 10^8 CFU/mL. After 24 h of incubation (aerobic conditions, 120 rpm shaking, 37 °C), all of the CLs were rinsed three times with PBS. […] After incubation, resazurin was added (final concentration per sample = 0.01%) and absorbance was measured as in the assays 4.3 and 4.4. Positive controls contained CLs with bacterial biofilms placed in pure PBS, while sterile CLs incubated in MHB II replaced with PBS served as negative controls. The experiments were performed in triplicate on three different days.

[6] = test system: Staphylococcus epidermidis ATCC 14990 biofilm on CLs; test: as above; assay type: cell-based; conditions: SE biofilm on CLs, lipopeptide in PBS, 24 h, resazurin
Procedure: as §2, §3

[7] = test system: Escherichia coli ATCC 25922 biofilm on CLs; test: as above; assay type: cell-based; conditions: EC biofilm on CLs, lipopeptide in PBS, 24 h, resazurin
Procedure: as §2, §3

[8] = test system: Pseudomonas aeruginosa ATCC 9027 biofilm on CLs; test: as above; assay type: cell-based; conditions: PA biofilm on CLs, lipopeptide in PBS, 24 h, resazurin
Procedure: as §2, §3

[9] = test system: Staphylococus aureus ATCC 6538 biofilm; test: Activity against biofilms on 96-well plates after withdrawal of the antimicrobial (additional 24 h in MHB II); assay type: cell-based, Staphylococcus aureus; conditions: after withdrawal and additional 24 h in MHB II
Procedure: as §1

[10] = lowest concentration giving permanent reduction of metabolic activity by at least 50 ± 5%
[11] = lowest concentration giving permanent reduction of metabolic activity by at least 90 ± 5%

With (C10)2-KKKK-NH2 [Lipopeptide] the “MBEC II 50” value [1, 10] was 64 µg/mL, the “MBEC II 90” value [1, 11] was 64 µg/mL and the “MBEC II 50” value [2] was 64 µg/mL. The “concentration giving a permanent antibiofilm effect” value ([3]; SE biofilm on polystyrene) was 16 mg/L, the “MBEC II 50” value [3, 10] was 16 µg/mL and the “MBEC II 90” value [3, 11] was 16 µg/mL. For the same substance, the “concentration permanently eradicating the biofilm” value ([4]; listed as (C10)2-KKKK-NH2) was 32 mg/L, the “concentration permanently eradicating the biofilm” value ([4]; listed as lipopeptide) was 32 to 256 mg/L and the “MBEC II 50” value [4, 10] was 32 µg/mL. The “MBEC II 90” value [4, 11] was 32 µg/mL, the “concentration reducing metabolic activity of bacteria by at least 90%” value [5] was 8 mg/L and the “concentration reducing metabolic activity of bacteria by at least 90%” value [6] was 8 mg/L. For the same substance, the “concentration reducing metabolic activity by more than 90%” value [7] was 32 mg/L, the “concentration reducing metabolic activity by more than 90%” value [8] was 32 mg/L and the “concentration permanently eliminating living bacterial cells” value ([9]; SA biofilm on polystyrene) was 32 mg/L. The “MBEC II 50” value [9, 10] was 16 µg/mL and the “MBEC II 90” value [9, 11] was 32 µg/mL.
